Results as given in patent US7161064B2, “Method for producing stably transformed duckweed using microprojectile bombardment” (North Carolina State University, priority 1997, dated 2007).

How the values were obtained:
Type in all cases: cell-based
Lemna gibba G3 = assay: Callus induction from Lemna gibba G3 fronds on solid medium with plant growth regulators
Experimental: Duckweed fronds were grown in liquid Hoagland's medium (Hoagland and Snyder, Proc. Amer. Soc. Hort. Sci. 30, 288 (1933)) containing 3% sucrose for two weeks at 23° C. under a 16 hr light/8 hr dark photoperiod with light intensity of approximately 40 μmol/m^2·sec prior to experimentation. For callus induction, eighteen, 100 ml portions of Murashige and Skoog basal medium (Murashige and Skoog, Physiol. Plant. 15, 473 (1962)) containing 3% sucrose, 0.15% Gelrite and 0.4% Difco Bacto-agar were prepared with 2,4-D concentrations of 10, 20 and 50 μM and BA concentrations of 0, 0.01, 0.1, 1.0, 2.0, and 10.0 μM. All media were pH adjusted to 5.8, autoclaved at 121° C. for 20 minutes, cooled, and each 100 ml was poured into 4, 100 mm×15 mm petri dishes.
(§1) A three 2,4-D concentrations×six BA concentrations, full-factorial experimental design (18 treatments in total) with four replications, with one petri dish per replication and 5 fronds per petri dish was used. For callus induction, 5 individual duckweed fronds were placed abaxial side down on each plate of medium. The 72 plates were incubated at 23° C., for 27 days under a 16 hr light/8 hr dark photoperiod with light intensity of approximately 40 μmol/m^2·sec. After 27 days the duckweed tissue was transferred to fresh media of the same type and incubation was continued another 35 days under the same temperature and light culturing conditions.
Duckweed fronds were grown in liquid Hoagland's medium containing 3% sucrose for two weeks at 23° C. under a 16 hr light/8 hr dark photoperiod with light intensity of approximately 40 μmol/m^2·sec. prior to experimentation. For callus induction, forty 100 ml portions of Murashige and Skoog medium with 3% sucrose, 0.15% Gelrite, and 0.4% Difco Bacto-agar were prepared with dicamba concentrations of 10, 20, 30, 40, 50, 60, 80, 100 μM and BA concentrations of 0.01, 0.05, 0.1, 0.5, and 1.0 μM. All media were pH adjusted to 5.8, autoclaved at 121° C. for 20 minutes, cooled, and each 100 ml was poured into 4, 100 mm×15 mm petri dishes.
as §1, with “An eight dicamba concentrations×five BA” for “A three 2,4-D concentrations×six BA”, “design (40” for “design (18”, “The” for “The 72”, “After 28” for “After 27”, “another 45” for “another 35”
Duckweed fronds were grown in liquid Schenk and Hildebrandt medium containing 1% sucrose for two weeks at 23° C. under a 16 hr light/8 hr dark photoperiod with light intensity of approximately 40 μmol/m^2·sec prior to experimentation. For callus induction, three basal media were tested: Murashige and Skoog, Schenk and Hildebrandt, and N6. Benzyladenine was used as the cytokinin at a concentration of 1 μM. The auxin concentrations varied with auxin type. For the relatively strong auxins, 2,4-D and dicamba, concentrations were 0, 1, 5, 10 and 20 μM. For weak auxins, NAA and IBA, the concentrations were 0, 5, 10, 20 and 50 μM. For each medium dose-response experiment, 2 liters of basal medium were prepared with BA and the pH adjusted to 5.8. The volume was aliquoted as 20, 100 ml portions. To each of these portions, the appropriate amount of auxin was added and the medium was adjusted to 0.15% Gelrite, and 0.4% Difco Bacto-agar. The media were autoclaved for 30 minutes at 121° C., cooled and 4, 100 mm×15 mm petri dishes were poured from each 100 ml portion.
A 3 media×4 auxin×5 concentration combinations, 60 treatment, randomized dose-response experimental design was used. The design was replicated two times, with one petri dish per replication and 5 fronds per petri dish.

[1] = tested on: L. minor strains 8744 and 8627; assay: Callus induction from Lemna minor fronds, auxin and cytokinin type and concentration; details: MS medium, 6 weeks
Experimental: In the auxin type and concentration experiment, four auxins: 2,4-D, NAA, IBA and dicamba were tested, each at four concentrations: 2, 5, 10 and 20 μM, for their ability to induce callus formation from L. minor strains 8744 and 8627. The basal medium used was MS and media and experimental protocol was basically that followed in Example 10. Fronds used in this experiment were grown for 2 weeks prior to plating on callus induction medium under 3 different culture conditions: 1) SH medium without plant growth regulators, 2) F medium with 24 μM 2,4-D and 2 μM 2-iP, and 3) SH medium with 24 μM 2,4-D and 2 μM 2-iP. Fronds were separated, the roots cut off and then plated on induction medium. The fronds were incubated under conditions given in Example 8 for 6 weeks at which time cultures were evaluated for the presence or absence of callus induction, the degree to which the callus proliferated, and the basic morphology of the callus present.
In the cytokinin type and concentration experiment, four cytokinins: BA, kinetin, 2-iP, and thidiazuron were tested, each at five concentrations: 0.05, 0.1, 0.5, 1 and 5 μM, for their ability to induce callus formation from L. minor strains 8744 and 8627. The basal medium used was MS and the media and experimental protocol were basically as described in Example 11. Fronds used in this experiment were grown for 2 weeks prior to plating on callus induction medium under 3 different culture conditions: 1) SH medium without plant growth regulators, 2) F medium with 24 μM 2,4-D and 2 μM 2-iP, and 3) SH medium with 24 μM 2,4-D and 2 μM 2-iP. Fronds were separated, the roots cut off and then plated on induction medium. The fronds were incubated under conditions given in Example 8 for 6 weeks at which time cultures were evaluated for the presence or absence of callus induction, the degree to which the callus proliferated, and the basic morphology of the callus.

Spirodela species = assay: Callus induction screen across Lemnaceae strains, frond health; details: 4-5 weeks
Experimental: Duckweed fronds were grown in liquid Schenk and Hildebrandt medium containing 1% sucrose for two weeks at 23° C. under a 16 hr light/8 hr dark photoperiod with light intensity of approximately 40 μmol/m^2·sec prior to experimentation. For callus induction, six basal media were used: Murashige and Skoog, Schenk and Hildebrand (Schenk and Hildebrandt, Can. J. Bot. 50, 199 (1972)), Nitsch and Nitsch, N6 (Chu et al., Scientia Sinica 18, 659 (1975)), Gamborg's B5, and Hoagland's. The two plant growth regulator combinations known to elicit callus proliferation in L. gibba G3 were used: 30 μM 2,4-D and 0.02 μM BA, and 5 μM 2,4-D and 2 μM BA. For each strain, 200 ml of each basal medium was prepared with 3% sucrose, 0.15% Gelrite, and 0.4% Difco Bacto-agar. The 200 ml was divided into 2, 100 ml portions, each to be used to prepare the two plant growth regulator concentrations. The pH of all media was adjusted to 5.8, the media were autoclaved for 30 minutes at 121° C., cooled and 4, 100 mm×15 mm petri dishes were poured from each 100 ml portion.
A 6 media×2 plant growth regulator combinations, 12 treatment, random block experimental design was used for each duckweed strain tested. […] At this time the fronds were evaluated for general health (judged by color: green to yellow, and vigor of proliferation) and the frequency of callus initiation of the three types: Type I, Type II, and Type III.

O=C(O)COc1ccc(Cl)cc1Cl [2,4-D, 2,4-dichlorophenoxyacetic acid]
concentrations at which callus proliferation was the most vigorous (Lemna gibba G3; 2,4-D x BA factorial, Murashige and Skoog medium, 62 days): 20 to 50 µM | compact Type I callus induction on MS medium (Lemna gibba G3; auxin with 1 μM BA, five weeks): some degree of callus induction | compact Type I callus induction on N6 medium (Lemna gibba G3; auxin with 1 μM BA, five weeks): produced callus | concentration giving the best callus induction ([1]; strain 8627, auxin experiment): 5 µM | concentration giving the best callus induction ([1]; strain 8744, auxin experiment): 5 µM | frond survival (Spirodela species; higher concentration of 2,4-D (30 μM with 0.02 μM BA)): did not survive | frond growth (Spirodela species; lower concentration of 2,4-D (5 μM with 2 μM BA)): did not grow well
